Measured values as given in ChEMBL document CHEMBL1201862, “PubChem BioAssay data set” (2004).
Activity calls are given as the source filed them. Rule as the data show it, for most assays here: actives have a measured IC50 and inactives only a lower limit.

How the values were obtained:
[1] = molecular target: SUMO E1/E2 (Homo sapiens, UniProt P63279+Q9UBE0+Q9UBT2); experiment: SAR analysis of SUMOylation using HTRF in an in-Vitro dose response assay. [Related pubchem assays (depositor defined):AID2006, AID2011, AID2018, AID2069, AID2658]; format: functional
[2] = molecular target: T1, Voltage-gated N-type calcium channel alpha-1B subunit/Amyloid beta A4 precursor protein-binding family A member 1 (Homo sapiens, UniProt Q00975+Q02410); experiment: disruptors of Mint-PDZ/N-type channel peptide interaction – biochemical, HTRF, set 2, SAR follow-up (AID 434980); format: functional
[3] = molecular target: T1, Voltage-gated N-type calcium channel alpha-1B subunit/Amyloid beta A4 precursor protein-binding family A member 1; experiment: disruptors of Mint-PDZ/N-type channel peptide interaction – biochemical, HTRF, SAR follow-up (AID 2489); format: functional
[4] = molecular target: Nucleotide-binding oligomerization domain-containing protein 1 (Homo sapiens, UniProt Q9Y239); experiment: SAR analysis of compounds that inhibit NOD1 - Set 3. [Related pubchem assays (depositor defined):AID1566, AID1575, AID1578, AID1849, AID1852, AID2333, AID2335, AID2466]; format: functional
[5] = molecular target: Tumor necrosis factor (Homo sapiens, UniProt P01375); experiment: analog potency on TNFa NF-kB signaling – cell-based, set 3, SAR follow-up (AID 2801); format: functional
[6] = system: HEK293; experiment: SAR analysis of compounds that are cytotoxic to HEK293 - Set 3. [Related pubchem assays (depositor defined):AID1575, AID1578, AID1848, AID1849, AID2001, AID2333, AID2334, AID2335, AID2337, AID2469]; format: functional, cell-based; conditions: Homo sapiens
[7] = molecular target: Nucleotide-binding oligomerization domain-containing protein 2 (Homo sapiens, UniProt Q9HC29); experiment: inhibition of MDP-driven NOD2 NF-kB reporter – cell-based, set 3, SAR follow-up (AID 2799); format: functional
[8] = molecular target: T2, Mannose-6-phosphate isomerase (Homo sapiens, UniProt P34949); experiment: phosphomannose isomerase inhibition – biochemical, fluorescence intensity, confirmation (AID 1535)
T2 sequence (P34949 whole entry): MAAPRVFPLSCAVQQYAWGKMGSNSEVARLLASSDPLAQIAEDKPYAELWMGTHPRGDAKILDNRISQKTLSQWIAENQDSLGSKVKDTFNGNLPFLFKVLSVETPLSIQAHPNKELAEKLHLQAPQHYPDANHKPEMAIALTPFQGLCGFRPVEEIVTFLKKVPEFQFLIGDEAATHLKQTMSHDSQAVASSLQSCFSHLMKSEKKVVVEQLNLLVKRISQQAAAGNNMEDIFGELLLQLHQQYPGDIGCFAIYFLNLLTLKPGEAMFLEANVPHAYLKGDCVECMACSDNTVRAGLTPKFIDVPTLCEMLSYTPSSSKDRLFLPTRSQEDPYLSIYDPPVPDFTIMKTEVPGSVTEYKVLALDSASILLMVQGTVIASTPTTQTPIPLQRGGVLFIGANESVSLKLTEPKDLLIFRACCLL

[9] = molecular target: Phosphomannomutase 2 (Homo sapiens, UniProt O15305); experiment: Counter screen SAR assay for PMM2 inhibitors via a fluorescence intensity assay. [Related pubchem assays (depositor defined):AID1545, AID1574]
[10] = molecular target: Phosphoethanolamine/phosphocholine phosphatase (Homo sapiens, UniProt Q8TCT1); experiment: SAR assay for compounds that inhibit PHOSPHO1. [Related pubchem assays (depositor defined):AID1545, AID1565, AID1574]
[11] = molecular target: Tyrosine-protein phosphatase non-receptor type 7 (Homo sapiens, UniProt P35236); format: functional
[12] = molecular target: T3, Tyrosine-protein phosphatase non-receptor type 22 (Homo sapiens, UniProt Q9Y2R2); format: functional
T3 sequence (Q9Y2R2 whole entry): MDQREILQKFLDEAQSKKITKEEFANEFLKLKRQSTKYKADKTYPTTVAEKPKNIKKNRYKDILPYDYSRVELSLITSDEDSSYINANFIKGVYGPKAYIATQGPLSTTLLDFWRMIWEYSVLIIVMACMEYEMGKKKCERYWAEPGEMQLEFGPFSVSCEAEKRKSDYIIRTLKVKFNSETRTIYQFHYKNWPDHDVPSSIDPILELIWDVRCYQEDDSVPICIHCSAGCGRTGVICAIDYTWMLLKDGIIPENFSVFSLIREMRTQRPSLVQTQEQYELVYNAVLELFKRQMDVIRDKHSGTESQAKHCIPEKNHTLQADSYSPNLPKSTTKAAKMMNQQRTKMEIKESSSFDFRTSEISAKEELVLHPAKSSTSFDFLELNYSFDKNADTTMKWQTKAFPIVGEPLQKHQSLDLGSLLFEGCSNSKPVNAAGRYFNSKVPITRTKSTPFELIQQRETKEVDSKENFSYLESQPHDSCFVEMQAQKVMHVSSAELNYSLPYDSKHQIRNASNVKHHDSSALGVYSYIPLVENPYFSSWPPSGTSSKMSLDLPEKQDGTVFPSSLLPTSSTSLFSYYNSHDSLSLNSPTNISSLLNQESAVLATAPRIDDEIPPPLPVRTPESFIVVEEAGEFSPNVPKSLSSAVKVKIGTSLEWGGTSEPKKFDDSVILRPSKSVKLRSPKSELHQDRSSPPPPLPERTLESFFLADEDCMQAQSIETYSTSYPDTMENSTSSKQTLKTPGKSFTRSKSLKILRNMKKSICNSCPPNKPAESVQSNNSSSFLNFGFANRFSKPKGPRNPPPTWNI

[13] = molecular target: T3, Tyrosine-protein phosphatase non-receptor type 22; format: functional; remark: listed apart in the source

T1 sequence (Q00975 whole entry): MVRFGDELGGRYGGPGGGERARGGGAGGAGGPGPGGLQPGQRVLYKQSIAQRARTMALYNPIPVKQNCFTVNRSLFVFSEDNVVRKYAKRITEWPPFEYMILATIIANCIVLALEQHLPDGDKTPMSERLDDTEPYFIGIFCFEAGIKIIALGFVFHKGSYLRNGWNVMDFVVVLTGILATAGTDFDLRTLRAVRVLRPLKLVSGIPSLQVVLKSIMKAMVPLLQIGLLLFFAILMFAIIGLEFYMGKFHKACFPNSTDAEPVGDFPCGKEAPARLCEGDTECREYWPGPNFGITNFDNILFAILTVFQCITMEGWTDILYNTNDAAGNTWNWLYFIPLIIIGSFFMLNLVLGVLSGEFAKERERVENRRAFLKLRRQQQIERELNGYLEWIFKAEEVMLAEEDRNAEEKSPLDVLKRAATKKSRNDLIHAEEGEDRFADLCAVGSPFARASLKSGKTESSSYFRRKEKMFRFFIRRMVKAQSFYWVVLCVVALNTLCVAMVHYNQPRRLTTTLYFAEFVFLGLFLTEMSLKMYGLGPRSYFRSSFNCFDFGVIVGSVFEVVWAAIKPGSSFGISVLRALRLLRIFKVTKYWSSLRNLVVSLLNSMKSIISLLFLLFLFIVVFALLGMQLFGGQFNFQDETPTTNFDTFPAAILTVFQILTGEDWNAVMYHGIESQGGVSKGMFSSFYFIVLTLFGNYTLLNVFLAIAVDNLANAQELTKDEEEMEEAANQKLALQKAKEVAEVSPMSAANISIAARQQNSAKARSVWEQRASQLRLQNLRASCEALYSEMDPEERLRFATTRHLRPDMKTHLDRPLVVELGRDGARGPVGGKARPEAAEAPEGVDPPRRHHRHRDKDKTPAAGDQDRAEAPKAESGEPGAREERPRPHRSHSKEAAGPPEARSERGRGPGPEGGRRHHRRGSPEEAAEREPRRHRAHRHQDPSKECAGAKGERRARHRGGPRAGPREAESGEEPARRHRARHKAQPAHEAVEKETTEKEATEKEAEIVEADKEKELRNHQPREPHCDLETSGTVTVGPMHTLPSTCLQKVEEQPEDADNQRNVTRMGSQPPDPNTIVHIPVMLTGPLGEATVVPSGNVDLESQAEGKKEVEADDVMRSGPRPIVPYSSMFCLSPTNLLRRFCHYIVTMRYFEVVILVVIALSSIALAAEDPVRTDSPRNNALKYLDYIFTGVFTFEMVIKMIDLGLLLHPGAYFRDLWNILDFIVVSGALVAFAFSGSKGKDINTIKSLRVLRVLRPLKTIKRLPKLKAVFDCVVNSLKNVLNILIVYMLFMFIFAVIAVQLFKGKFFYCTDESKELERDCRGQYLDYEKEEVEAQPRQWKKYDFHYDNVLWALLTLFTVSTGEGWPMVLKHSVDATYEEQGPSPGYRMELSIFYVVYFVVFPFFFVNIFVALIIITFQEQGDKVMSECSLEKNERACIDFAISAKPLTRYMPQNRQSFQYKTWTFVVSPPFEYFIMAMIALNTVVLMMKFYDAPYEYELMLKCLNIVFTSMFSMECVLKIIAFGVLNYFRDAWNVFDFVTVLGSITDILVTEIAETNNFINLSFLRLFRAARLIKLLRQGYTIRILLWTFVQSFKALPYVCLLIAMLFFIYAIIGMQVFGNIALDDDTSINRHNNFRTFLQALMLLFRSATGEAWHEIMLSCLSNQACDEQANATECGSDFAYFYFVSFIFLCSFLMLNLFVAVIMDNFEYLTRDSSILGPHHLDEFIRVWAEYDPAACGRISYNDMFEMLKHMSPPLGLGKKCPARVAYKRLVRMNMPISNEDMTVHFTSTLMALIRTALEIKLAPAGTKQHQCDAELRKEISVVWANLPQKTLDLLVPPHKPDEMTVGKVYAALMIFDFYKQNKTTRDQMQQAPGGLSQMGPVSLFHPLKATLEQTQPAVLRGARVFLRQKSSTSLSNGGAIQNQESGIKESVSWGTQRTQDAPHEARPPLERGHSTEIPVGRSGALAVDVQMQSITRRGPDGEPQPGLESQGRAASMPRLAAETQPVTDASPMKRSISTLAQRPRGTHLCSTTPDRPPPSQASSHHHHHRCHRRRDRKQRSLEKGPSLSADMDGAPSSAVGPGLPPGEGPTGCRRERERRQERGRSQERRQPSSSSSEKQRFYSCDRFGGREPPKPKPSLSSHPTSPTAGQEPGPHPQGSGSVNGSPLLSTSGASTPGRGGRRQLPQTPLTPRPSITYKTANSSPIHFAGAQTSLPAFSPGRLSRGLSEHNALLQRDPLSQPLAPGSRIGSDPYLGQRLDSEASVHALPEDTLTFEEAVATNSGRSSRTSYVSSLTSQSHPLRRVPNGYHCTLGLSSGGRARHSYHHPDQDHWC
T1 sequence (Q02410 whole entry): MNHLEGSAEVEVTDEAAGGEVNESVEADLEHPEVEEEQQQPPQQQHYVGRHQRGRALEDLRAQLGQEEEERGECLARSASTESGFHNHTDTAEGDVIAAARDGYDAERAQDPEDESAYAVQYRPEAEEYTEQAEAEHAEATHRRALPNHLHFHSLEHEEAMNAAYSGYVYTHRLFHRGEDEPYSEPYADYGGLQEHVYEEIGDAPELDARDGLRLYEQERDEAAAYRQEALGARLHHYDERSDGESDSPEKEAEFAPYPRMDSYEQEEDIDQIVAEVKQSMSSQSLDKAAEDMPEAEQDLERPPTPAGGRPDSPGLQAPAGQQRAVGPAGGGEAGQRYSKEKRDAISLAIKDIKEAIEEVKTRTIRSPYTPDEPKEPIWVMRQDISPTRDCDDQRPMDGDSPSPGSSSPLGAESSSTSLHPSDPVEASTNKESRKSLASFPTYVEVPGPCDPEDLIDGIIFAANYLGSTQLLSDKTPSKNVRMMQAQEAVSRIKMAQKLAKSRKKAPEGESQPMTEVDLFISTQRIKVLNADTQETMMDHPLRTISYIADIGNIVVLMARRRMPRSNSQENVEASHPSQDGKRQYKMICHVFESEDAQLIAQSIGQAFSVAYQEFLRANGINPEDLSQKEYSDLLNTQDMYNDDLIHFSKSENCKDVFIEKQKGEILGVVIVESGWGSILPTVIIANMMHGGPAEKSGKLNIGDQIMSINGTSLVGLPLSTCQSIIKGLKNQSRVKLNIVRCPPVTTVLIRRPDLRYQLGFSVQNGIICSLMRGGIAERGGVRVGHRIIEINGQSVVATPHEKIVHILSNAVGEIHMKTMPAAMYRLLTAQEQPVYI
Sequence of Tyrosine-protein phosphatase non-receptor type 7 (P35236 whole entry): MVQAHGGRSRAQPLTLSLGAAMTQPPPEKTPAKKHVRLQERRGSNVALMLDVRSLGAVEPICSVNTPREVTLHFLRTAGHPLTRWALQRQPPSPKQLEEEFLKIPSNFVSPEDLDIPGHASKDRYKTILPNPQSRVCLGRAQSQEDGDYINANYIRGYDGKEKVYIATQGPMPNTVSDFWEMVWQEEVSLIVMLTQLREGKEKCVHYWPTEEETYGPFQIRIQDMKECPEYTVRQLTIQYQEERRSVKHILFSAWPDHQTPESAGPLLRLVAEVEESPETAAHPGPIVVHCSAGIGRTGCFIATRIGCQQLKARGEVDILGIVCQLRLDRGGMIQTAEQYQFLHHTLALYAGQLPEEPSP
Sequence of Nucleotide-binding oligomerization domain-containing protein 1 (Q9Y239 whole entry, the tested form may be a part): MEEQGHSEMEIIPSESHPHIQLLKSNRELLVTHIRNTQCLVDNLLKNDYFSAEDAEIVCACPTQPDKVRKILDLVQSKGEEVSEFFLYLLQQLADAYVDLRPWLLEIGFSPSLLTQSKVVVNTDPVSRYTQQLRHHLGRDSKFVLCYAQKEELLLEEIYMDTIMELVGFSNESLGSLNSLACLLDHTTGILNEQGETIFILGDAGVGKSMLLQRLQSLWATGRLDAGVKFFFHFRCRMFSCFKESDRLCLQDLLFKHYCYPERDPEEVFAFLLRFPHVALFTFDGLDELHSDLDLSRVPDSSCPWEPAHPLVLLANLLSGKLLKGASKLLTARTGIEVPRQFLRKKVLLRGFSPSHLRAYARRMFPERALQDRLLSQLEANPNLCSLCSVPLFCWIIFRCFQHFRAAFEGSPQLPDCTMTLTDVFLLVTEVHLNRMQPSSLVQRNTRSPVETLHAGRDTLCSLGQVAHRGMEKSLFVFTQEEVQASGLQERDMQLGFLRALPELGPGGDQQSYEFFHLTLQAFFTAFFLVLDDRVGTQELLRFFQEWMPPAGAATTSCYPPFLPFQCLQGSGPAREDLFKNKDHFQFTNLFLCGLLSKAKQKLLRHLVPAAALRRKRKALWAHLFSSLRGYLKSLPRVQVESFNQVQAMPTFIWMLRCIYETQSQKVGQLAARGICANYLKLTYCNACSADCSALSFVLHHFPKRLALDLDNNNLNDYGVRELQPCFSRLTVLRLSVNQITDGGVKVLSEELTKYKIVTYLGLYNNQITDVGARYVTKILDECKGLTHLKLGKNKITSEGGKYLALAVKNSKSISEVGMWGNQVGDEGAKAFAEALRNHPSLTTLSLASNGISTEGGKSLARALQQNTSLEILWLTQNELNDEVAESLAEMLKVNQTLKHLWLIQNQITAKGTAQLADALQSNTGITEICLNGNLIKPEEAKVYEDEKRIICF
Sequence of Phosphomannomutase 2 (O15305 whole entry): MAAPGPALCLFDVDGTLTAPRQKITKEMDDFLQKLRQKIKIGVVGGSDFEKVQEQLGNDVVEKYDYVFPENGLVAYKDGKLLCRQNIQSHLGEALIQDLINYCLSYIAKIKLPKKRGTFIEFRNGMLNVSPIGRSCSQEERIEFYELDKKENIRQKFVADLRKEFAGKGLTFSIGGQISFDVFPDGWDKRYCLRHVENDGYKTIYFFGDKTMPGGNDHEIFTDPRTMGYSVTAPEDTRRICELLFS
Sequence of Phosphoethanolamine/phosphocholine phosphatase (Q8TCT1 whole entry): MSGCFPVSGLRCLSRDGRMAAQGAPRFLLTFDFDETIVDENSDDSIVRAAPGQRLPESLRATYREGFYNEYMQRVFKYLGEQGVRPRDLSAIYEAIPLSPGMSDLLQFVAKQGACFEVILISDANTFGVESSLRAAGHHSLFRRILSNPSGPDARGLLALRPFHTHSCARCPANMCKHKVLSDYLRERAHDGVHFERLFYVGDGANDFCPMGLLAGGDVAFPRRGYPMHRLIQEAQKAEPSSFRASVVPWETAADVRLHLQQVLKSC

`COc1ccccc1CNC(=O)CCOC(=O)c1cc(-c2ccco2)nc2ccccc12` was tested. Which IC50 [1] did it give?
The IC50 was 38.6 µM (active).

And the IC50 [2]?
Its IC50 is 23 µM (active).

And the IC50 [3]?
The IC50 was > 56.8 µM (inactive).

Which results are given for `CN(C(=O)c1ccccc1)C(c1ccccc1)c1c[nH]c2ccccc12` (stereo not drawn)?
IC50 [4]: > 20 µM (inactive); IC50 [5]: > 20 µM (inactive); IC50 [6]: > 20 µM (inactive); IC50 [7]: 12.4 µM (active)

`O=C1c2ccccc2C(=O)c2c1ccc1c(=O)n(-c3cccc([N+](=O)[O-])c3)sc21` was tested. Which IC50 [8] did it give?
Its IC50 is > 50 µM (inactive).

What about the IC50 [9] of the same molecule?
The IC50 was > 100 µM (inactive).

What about the IC50 [10] of the same molecule?
Its IC50 is 3.6 µM (inactive).

Which results are given for `O=C1C=C(NCCNc2c(F)c(F)c(CO)c(F)c2F)CCC1`?
IC50 [11]: > 79.4 µM (inactive); IC50 [12]: > 79.4 µM (inactive); IC50 [13]: > 79.4 µM (inactive)
